From ChEMBL document CHEMBL3301562, “MMV Box screening against Plasmodium falciparum protein kinases and aminoacyl tRNA synthetases”

Columns and labels:
Format in all cases: functional
[1] = target: T1, Cdk-related protein kinase 6 (Plasmodium falciparum, UniProt O77239); assay: Final concentrations were 1.5 uM ATP, 5 mM MnCl2, and 15 ug/ml PK6 in a buffer of 100 mM Tris-HCl (pH 7.5). 50 ug/mL MBP was provided as the substrate; 10 uM staurosporine was used as a control inhibitor. Incubation time was 3 hours and 40 minutes.The catalytic activity of each kinase was considered proportional to ATP consumed, as determined from measurements of residual [ATP] with the luciferase-based reagent Kinase-Glo (Promega) following incubation. Luminescence (proportional to residual [ATP]) was measured on the plate readers FLx800 (BioTek Instruments, Winooski, VT, USA) and MicroBeta2.
T1 sequence (O77239 whole entry): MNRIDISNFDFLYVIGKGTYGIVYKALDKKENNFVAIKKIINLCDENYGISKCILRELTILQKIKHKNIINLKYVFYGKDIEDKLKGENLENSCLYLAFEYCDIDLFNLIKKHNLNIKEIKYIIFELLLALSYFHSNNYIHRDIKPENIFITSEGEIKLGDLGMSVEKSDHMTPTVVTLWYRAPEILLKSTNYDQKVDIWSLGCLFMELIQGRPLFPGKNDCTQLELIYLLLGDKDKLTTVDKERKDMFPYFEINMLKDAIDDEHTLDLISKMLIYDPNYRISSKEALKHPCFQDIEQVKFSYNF

[2] = target: T2, Putative uncharacterized protein pk7 (Plasmodium falciparum, UniProt O96214); assay: Final concentrations were 1 uM ATP, 2 mM DTT, 20 mM MgCl2, 2 mM MnCl2, 0.01% BSA, and 6 ug/ml PK7, in a buffer of 20 mM Tris-HCl (pH 7.5). The enzyme itself was the only substrate present (since autophosphorylation occurs); 100 uM 1NA-PP1 was used as a control inhibitor. Incubation time was 3 hours.
T2 sequence (O96214 whole entry): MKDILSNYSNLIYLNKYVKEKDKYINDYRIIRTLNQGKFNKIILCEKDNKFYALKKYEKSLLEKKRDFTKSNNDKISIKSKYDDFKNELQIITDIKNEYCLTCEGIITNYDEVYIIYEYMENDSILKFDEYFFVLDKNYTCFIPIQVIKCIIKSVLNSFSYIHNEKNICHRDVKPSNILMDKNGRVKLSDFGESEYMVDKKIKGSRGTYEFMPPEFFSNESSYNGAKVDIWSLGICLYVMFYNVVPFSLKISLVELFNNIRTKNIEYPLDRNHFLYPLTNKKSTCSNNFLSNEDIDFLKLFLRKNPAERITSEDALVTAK

[3] = target: T3, Mitogen-activated protein kinase (Plasmodium falciparum, UniProt Q25917); assay: Final concentrations were 1 uM ATP, 0.5 mM DTT, 1 mM MgCl2, 0.5 mg/mL BSA, and 10 ug/ml MAP2 in a buffer of 50 mM HEPES (pH 7.0). 0.5 mg/mL histone III-S served as the substrate (13); 100 uM AMP-PNP, an ATP analog, was used as a control inhibitor. Incubation time was 4 hours.
T3 sequence (Q25917 whole entry): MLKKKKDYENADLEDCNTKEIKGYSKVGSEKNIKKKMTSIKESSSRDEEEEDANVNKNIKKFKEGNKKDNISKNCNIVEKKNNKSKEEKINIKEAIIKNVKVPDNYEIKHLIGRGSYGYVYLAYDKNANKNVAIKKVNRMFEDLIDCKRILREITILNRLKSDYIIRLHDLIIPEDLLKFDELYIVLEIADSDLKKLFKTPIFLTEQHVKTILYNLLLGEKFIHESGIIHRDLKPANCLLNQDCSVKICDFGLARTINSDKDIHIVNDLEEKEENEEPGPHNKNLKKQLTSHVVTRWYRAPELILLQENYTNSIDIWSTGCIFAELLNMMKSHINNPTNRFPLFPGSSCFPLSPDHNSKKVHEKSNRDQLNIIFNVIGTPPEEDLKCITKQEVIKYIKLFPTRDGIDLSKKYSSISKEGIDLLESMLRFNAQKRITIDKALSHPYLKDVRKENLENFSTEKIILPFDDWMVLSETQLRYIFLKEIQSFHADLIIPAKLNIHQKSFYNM

[4] = target: Calcium-dependent protein kinase 1 (Plasmodium falciparum, UniProt P62344); assay: MMV: CDPK1 Protein kinase inhibition assay using recombinant PfCDPK1, syntide 2 peptide substrate, ATP and KinaseGlo to measure % inhibition at 1 uM MMV box compound.
Sequence of Calcium-dependent protein kinase 1 (P62344 whole entry): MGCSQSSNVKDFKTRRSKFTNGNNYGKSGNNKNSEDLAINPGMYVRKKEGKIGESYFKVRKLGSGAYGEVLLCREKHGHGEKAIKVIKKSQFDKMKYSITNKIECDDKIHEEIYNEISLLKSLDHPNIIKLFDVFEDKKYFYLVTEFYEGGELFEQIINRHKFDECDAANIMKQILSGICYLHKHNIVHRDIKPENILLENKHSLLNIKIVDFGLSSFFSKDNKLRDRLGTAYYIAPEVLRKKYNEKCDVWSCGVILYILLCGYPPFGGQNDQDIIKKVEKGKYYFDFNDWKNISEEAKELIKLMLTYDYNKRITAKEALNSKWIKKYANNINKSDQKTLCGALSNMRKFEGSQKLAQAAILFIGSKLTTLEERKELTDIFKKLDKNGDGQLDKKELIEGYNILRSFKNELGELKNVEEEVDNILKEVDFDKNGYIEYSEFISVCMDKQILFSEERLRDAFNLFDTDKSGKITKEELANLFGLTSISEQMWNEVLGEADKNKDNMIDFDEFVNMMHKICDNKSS

[5] = target: T4, Calcium-dependent protein kinase 4 (Plasmodium falciparum (isolate 3D7), UniProt Q8IBS5); assay: MMV: CDPK4 Protein kinase inhibition assay using recombinant PfCDPK4, syntide2 peptide substrate, ATP and KinaseGlo to measure % inhibition at 1 uM MMV box compound.
T4 sequence (Q8IBS5 whole entry): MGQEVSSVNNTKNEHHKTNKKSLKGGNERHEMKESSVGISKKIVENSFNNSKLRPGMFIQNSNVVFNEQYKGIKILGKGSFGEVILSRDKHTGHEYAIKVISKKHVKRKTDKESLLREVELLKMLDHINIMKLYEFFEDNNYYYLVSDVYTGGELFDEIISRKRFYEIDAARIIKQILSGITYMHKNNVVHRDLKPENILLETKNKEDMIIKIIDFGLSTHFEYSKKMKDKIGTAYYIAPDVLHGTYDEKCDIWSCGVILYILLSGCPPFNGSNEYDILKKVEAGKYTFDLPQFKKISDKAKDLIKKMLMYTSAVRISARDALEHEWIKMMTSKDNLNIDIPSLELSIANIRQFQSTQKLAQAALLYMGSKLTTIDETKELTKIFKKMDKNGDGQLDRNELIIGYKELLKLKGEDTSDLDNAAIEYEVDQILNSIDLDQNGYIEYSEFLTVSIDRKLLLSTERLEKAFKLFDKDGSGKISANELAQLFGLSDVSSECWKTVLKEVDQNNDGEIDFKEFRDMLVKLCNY

Proline--tRNA ligase = target: T5, Proline--tRNA ligase (Plasmodium falciparum (isolate 3D7), UniProt Q8I5R7); assay: MMV: ProRS recombinant Plasmodium falciparum Prolyl-tRNA-synthetase, assay with yeast tRNA, ATP, and proline and 3 uM MMV malaria box compound, assay read out with kinase glo as % inhibition.
T5 sequence (Q8I5R7 whole entry): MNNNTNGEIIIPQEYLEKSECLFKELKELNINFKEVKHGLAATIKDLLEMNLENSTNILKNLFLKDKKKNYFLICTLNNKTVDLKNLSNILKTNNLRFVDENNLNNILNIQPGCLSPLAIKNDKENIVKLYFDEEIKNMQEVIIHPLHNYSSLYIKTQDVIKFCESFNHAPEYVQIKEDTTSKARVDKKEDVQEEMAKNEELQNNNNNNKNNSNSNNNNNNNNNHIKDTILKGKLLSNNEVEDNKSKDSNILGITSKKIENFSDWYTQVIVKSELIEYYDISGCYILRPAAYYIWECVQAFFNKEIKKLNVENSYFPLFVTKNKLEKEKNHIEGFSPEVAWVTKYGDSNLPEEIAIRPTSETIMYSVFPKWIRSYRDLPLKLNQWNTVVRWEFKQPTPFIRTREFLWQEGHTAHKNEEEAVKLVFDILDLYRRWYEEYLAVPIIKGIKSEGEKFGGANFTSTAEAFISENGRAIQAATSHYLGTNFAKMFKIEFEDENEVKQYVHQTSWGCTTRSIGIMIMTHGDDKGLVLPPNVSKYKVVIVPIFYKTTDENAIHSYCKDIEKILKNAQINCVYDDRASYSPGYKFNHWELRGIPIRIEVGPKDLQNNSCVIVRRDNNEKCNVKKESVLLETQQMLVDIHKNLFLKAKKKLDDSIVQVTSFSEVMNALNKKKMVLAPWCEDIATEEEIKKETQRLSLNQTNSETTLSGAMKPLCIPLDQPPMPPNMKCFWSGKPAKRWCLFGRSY

Lysine--tRNA ligase = Lysine--tRNA ligase (Plasmodium falciparum (isolate 3D7), UniProt Q8IDJ8); assay: MMV: KRS recombinant Plasmodium falciparum Lysyl-tRNA-synthetase, assay with yeast tRNA, ATP, and lysine and 3 uM MMV malaria box compound, assay read out with kinase glo as % inhibition.
Sequence of Lysine--tRNA ligase (Q8IDJ8 whole entry): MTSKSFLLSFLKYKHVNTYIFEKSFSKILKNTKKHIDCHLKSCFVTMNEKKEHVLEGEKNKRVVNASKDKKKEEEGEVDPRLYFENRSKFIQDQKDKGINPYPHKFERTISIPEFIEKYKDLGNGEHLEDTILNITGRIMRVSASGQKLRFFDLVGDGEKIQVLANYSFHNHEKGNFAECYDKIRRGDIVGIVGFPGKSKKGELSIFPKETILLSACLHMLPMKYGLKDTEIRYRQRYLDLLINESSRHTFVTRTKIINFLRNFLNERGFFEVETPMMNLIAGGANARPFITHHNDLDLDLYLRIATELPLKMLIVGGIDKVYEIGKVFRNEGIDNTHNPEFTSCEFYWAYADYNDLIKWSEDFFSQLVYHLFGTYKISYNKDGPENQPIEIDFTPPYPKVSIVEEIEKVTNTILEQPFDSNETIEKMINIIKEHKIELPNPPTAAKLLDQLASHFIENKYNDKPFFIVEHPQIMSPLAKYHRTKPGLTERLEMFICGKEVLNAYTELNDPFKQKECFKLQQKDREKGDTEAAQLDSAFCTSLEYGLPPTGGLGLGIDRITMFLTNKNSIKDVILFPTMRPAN

O=C(Nc1cccc(C2=NCCN2)c1)Nc1cccc(C2=NCCN2)c1 [IMIDOCARB]
IC50 [1]: > 1000 nM
IC50 [2]: > 1000 nM
IC50 [3]: > 1000 nM
IC50 [4]: > 1000 nM
IC50 [5]: > 1000 nM
IC50 (Proline--tRNA ligase): > 2500 nM
IC50 (Lysine--tRNA ligase): > 2500 nM

CN(C)c1ccc(C(O)(c2ccc(N(C)C)cc2)c2ccc(N(C)C)cc2)cc1 [METHYLROSANILINE]
IC50 [1]: > 1000 nM
IC50 [2]: > 1000 nM
IC50 [3]: > 1000 nM
IC50 [4]: > 1000 nM
IC50 [5]: > 1000 nM
IC50 (Proline--tRNA ligase): > 2500 nM
IC50 (Lysine--tRNA ligase): > 2500 nM
